{"source": "patent US10933111B2", "about": "“Treating dry eye disorders” (Boston Biotechnology US CORP, priority 2019, dated 2021)", "system": "patients with dry eye disorder and other eye symptoms", "assay": "Clinical usage of deacidified coconut oil for treating eye diseases or disorders (three patients)", "assay_type": "in vivo, human", "conditions": "before deacidified coconut oil", "procedure": "The deacidified coconut oil was initially developed for treating the dry eye disorder. As the research continued, it was determined that the deacidified coconut oil can also be used to treat asthenopia, impaired vision, blurred vision, photophobia, astigmatism, and blepharitis. As shown in the following cases, the deacidified coconut oil was successfully administered to three patients with positive outcomes.\n[…] […] […] […] […] In 2013-2014, the patient developed additional eye symptoms including astigmatism, blepharitis, anxiety and body weight loss (e.g., about 10 kilograms). In 2015, the patient used the deacidified coconut oil as described herein as eye drops, placed the thermal pad as described herein on the eyes, and took herb composition as described herein. […] In 2019, the symptoms of dry eye disorder including pain, dryness, redness, foreign matter sensation and insomnia were gone. In addition, symptoms such as repetitive visual fatigue, decreased vision, blurred vision, photophobia, sensitivity to wind, astigmatism, and eyelid inflammation disappeared. The patient's overall vision condition improved relative to that in 2015. The eyeglass prescription for both eyes decreased by 1.50-2.00.\nThe second patient, person. […]", "data": [{"substance": "Recombinant Bovine Basic Fibroblast Growth Factor Eye Drops: Recombinant Bovine Basic Fibroblast Growth Factor Eye Drops", "values": [{"measurement": "effect of earlier treatment, second patient", "value": "No significant improvement was observed"}]}]}
